The assay concerns the target T1, human GLP-1 receptor (Homo sapiens, UniProt P43220).
T1 construct: expressed in transfected cells; host or cells: BHK cells (parent BHKTS13), clone FCW467-12A/KZ10-1, with CRE luciferase
The experiment in a line: GLP-1 receptor binding, 125I-GLP-1 displacement SPA on isolated membranes. The following applies: displacement of 125I-GLP-1 from membranes; read-out: IC50 GLP-1R. Put shortly: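 SPA displacement of 125I-GLP-1(7-36)NH2 from membranes of BHK cells expressing human GLP-1 receptor, with WGA beads, in 50 mM HEPES, 5 mM EGTA, 5 mM MgCl2, 0.005% Tween 20, pH 7.4. Incubated 2 h at 30°C; IC50 by non-linear regression, run at ≤0.001% or 2.0% final serum albumin.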

Each structure is given as a SMILES string. Numbered stars: 1 amine (or outer) side, 2 acyl side, 3 side chain; on linkers, the order of the positions; unused ones are H or OH. Square brackets hold non-standard residues; d marks the D form. Side chains are listed from the residue outwards. Peptide text beside a SMILES is read from it. * marks the point of attachment. C18 diacid = O=C(O)CCCCCCCCCCCCCCCCC(=O)*; γGlu = O=C(O)[C@H](CCC(=O)[*:2])N[*:1]; AEEA = NCCOCCOCC(=O)O; Aib = CC(C)(N)C(=O)O

T1 sequence (P43220 24-463): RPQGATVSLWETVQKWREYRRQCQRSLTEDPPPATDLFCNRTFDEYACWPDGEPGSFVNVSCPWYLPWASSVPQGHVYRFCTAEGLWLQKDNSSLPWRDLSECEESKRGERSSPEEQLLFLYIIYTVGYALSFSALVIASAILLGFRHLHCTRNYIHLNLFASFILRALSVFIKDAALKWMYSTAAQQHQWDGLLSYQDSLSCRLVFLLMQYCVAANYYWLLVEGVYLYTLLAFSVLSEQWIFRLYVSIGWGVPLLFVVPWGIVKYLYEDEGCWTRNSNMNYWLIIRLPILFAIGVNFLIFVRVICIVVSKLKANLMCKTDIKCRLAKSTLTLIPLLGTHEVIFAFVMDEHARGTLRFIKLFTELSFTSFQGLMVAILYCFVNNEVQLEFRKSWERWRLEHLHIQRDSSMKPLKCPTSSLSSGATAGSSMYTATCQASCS

Take `CC(C)C[C@H](NC(=O)[C@H](Cc1ccc(O)cc1)NC(=O)[C@H](CCCCN)NC(=O)[C@H](CO)NC(=O)[C@H](CC(C)C)NC(=O)[C@H](CC(=O)O)NC(=O)[C@H](CO)NC(=O)[C@@H](NC(=O)[C@H](Cc1ccccc1)NC(=O)[C@@H](NC(=O)CNC(=O)[C@H](CCC(N)=O)NC(=O)C(C)(C)NC(=O)[C@@H](N)Cc1c[nH]cn1)[C@@H](C)O)[C@@H](C)O)C(=O)N[C@@H](CC(=O)O)C(=O)N[C@@H](C)C(=O)N[C@@H](CCCNC(=N)N)C(=O)N[C@@H](CCCNC(=N)N)C(=O)N[C@@H](C)C(=O)N[C@@H](CCCNC(=N)N)C(=O)N[C@@H](CC(=O)O)C(=O)N[C@@H](Cc1ccccc1)C(=O)N[C@H](C(=O)N[C@@H](CCC(N)=O)C(=O)N[C@@H](Cc1c[nH]c2ccccc12)C(=O)N[C@@H](CC(C)C)C(=O)N[C@@H](CC(C)C)C(=O)N[C@@H](CO)C(=O)N[C@@H](CCCCNC(=O)CC[C@H](NC(=O)CC[C@H](NC(=O)COCCOCCNC(=O)COCCOCCNC(=O)CC[C@H](NC(=O)CCCCCCCCCCCCCCCCC(=O)O)C(=O)O)C(=O)O)C(=O)O)C(N)=O)C(C)C` [Example 66, N^ε29-[(4S)-4-carboxy-4-[[(4S)-4-carboxy-4-[[2-[2-[2-[[2-[2-[2-[[(4S)-4-carboxy-4-(17-carboxyheptadecanoylamino)butanoyl]amino]ethoxy]ethoxy]acetyl]amino]ethoxy]ethoxy]acetyl]amino]butanoyl]amino]butanoyl]-[Aib2,Leu10,Ala16,Arg20,Leu27,Ser28,Lys29]-Glucagon amide] (H-H[Aib]QGTFTSDLSKYLDARRARDFVQWLLSK([γGlu-γGlu-AEEA-AEEA-γGlu-C18 diacid])-NH2; N-terminus assumed): the IC50 is 0.6 nM. The same measure for `CC(C)C[C@H](NC(=O)[C@H](Cc1ccc(O)cc1)NC(=O)[C@H](CCCCN)NC(=O)[C@H](CO)NC(=O)[C@H](CC(C)C)NC(=O)[C@H](CC(=O)O)NC(=O)[C@H](CO)NC(=O)[C@@H](NC(=O)[C@H](Cc1ccccc1)NC(=O)[C@@H](NC(=O)CNC(=O)[C@H](CCC(N)=O)NC(=O)C(C)(C)NC(=O)[C@@H](N)Cc1c[nH]cn1)[C@@H](C)O)[C@@H](C)O)C(=O)N[C@@H](CCC(=O)O)C(=O)N[C@@H](CO)C(=O)N[C@@H](CCCNC(=N)N)C(=O)N[C@@H](CCCNC(=N)N)C(=O)N[C@@H](C)C(=O)N[C@@H](CCCNC(=N)N)C(=O)N[C@@H](CCC(=O)O)C(=O)N[C@@H](Cc1ccccc1)C(=O)N[C@H](C(=O)N[C@@H](CCC(N)=O)C(=O)N[C@@H](Cc1c[nH]c2ccccc12)C(=O)N[C@@H](CC(C)C)C(=O)N[C@@H](CC(C)C)C(=O)N[C@@H](CCCCNC(=O)CC[C@H](NC(=O)CC[C@H](NC(=O)[C@H](CO)NC(=O)[C@H](CCC(=O)O)NC(=O)[C@H](CO)NC(=O)CC[C@H](NC(=O)CC[C@H](NC(=O)CCCCCCCCCCCCCCCCC(=O)O)C(=O)O)C(=O)O)C(=O)O)C(=O)O)C(=O)N[C@H](C(N)=O)[C@@H](C)O)C(C)C` [Example 67, N^ε28-[(4S)-4-carboxy-4-[[(4S)-4-carboxy-4-[[(2S)-2-[[(2S)-4-carboxy-2-[[(2S)-2-[[(4S)-4-carboxy-4-[[(4S)-4-carboxy-4-(17-carboxyheptadecanoylamino)butanoyl]amino]butanoyl]amino]-3-hydroxypropanoyl]amino]butanoyl]amino]-3-hydroxypropanoyl]amino]butanoyl]amino]butanoyl]-[Aib2,Leu10,Glu15,Arg20,Glu21,Leu27,Lys28]-Glucagon amide] (H-H[Aib]QGTFTSDLSKYLESRRAREFVQWLLK([γGlu-γGlu-Ser-Glu-Ser-γGlu-γGlu-C18 diacid])T-NH2; N-terminus assumed): 0.3 nM.

Usually IC50 stands for the concentration at which inhibition is half-maximal.

Values taken from patent US9474790B2, “Stable, protracted GLP-1/glucagon receptor co-agonists for medical use” (Novo Nordisk A/S, priority 2013, dated 2016).
